Experimental data from patent US20230414575A1, “MK2 ACTIVATING COMPOUNDS FOR USE IN TREATING VASCULAR LEAK AND ENDOTHELIAL BARRIER DISORDERS” (Akttyva Therapeutics, Inc., priority 2020, published 2023).
Counter-ions that a name gives are not always drawn.

Legend:
MK2 [1] = target: T1, MK2 (Rattus norvegicus, UniProt Q80ZF4); test: ELISA MK2 cell-based activity assay (phospho-HSP-27), RMVEC cells; details: compound 20 μM, 30 minutes, 37° C.; for Average Response HSP27: phospho-HSP27 ELISA
T1 construct: endogenous in cells; host or cells: rat microvascular endothelial cells (RMVEC)
T1 sequence (Q80ZF4 1-386): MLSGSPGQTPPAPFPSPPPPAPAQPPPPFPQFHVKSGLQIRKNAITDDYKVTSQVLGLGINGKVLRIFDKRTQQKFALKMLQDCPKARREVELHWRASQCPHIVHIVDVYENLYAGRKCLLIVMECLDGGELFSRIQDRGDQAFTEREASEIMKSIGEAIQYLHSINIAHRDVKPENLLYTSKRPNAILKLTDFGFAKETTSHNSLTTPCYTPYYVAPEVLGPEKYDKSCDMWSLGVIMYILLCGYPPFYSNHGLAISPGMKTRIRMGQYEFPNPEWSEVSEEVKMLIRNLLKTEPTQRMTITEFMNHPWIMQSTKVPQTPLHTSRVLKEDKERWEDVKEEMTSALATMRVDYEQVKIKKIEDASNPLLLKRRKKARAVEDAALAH
Description: (§1) The MK2 activator candidates, identified using the artificial intelligence (AI)-assisted docking approach, were tested in activity assays for lead selection against the MK2 target. MK2 activation was assessed using (a) a cell-based assay using rat microvascular endothelial cells (RMVEC) and (b) human cancer skin fibroblast cells (Malme-3M). In both assays, an Enzyme-linked ImmunoSorbent Assay (ELISA) technique was used to measure (HSP-27) phosphorylation (DYC2314-2, R&D Systems). Both cell lines were grown to confluency in a 96-well tissue culture plate and treated at 37° C. for 30 minutes with the test compounds at concentrations of 20 μM. The cells were subsequently lysed with a lysis solution containing 0.5% Triton X-100 and anti-proteolysis agents. The resulting lysates were then loaded onto ELISA plates coated with anti-rat phospho-HSP27. After incubation and washing, the plates were treated with an horseradish peroxidase (HRP)-conjugated anti-phospho-HSP27 secondary antibody and then measured for chemiluminescence. Higher activity compounds, acting on MK2, induced higher levels of HSP-27 phosphorylation, as measured by the ELISA.

MK2 [2] = target: T2, MK2 (Homo sapiens, UniProt P49137); test: ELISA MK2 cell-based activity assay (phospho-HSP-27), Malme-3M cells; details: for Ratio to Control / Pho-HSP27: Malme-3M cells, compound 20 μM, 30 minutes, 37° C.; for Pho-HSP27: phospho-HSP27 ELISA
T2 construct: endogenous in cells; host or cells: Malme-3M
T2 sequence (P49137 whole entry): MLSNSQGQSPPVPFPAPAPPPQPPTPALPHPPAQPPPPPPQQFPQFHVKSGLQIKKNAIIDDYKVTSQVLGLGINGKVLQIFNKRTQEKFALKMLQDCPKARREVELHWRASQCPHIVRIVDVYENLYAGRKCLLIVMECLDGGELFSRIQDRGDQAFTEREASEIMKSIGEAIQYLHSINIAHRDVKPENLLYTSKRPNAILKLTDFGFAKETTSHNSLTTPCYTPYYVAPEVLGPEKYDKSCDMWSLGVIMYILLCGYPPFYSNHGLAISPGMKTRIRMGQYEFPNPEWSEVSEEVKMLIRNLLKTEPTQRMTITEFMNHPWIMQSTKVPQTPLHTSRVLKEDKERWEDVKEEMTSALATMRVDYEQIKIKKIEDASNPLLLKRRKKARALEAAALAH
Description: as §1

Row | Molecule | Ratio Compound/control (MK2 [1]) | Average Response HSP27 (MK2 [1]) [pg/mL] | Ratio to Control (MK2 [2]) | Pho-HSP27 (MK2 [2]) [pg/mL] | response in phospho-HSP27 ELISA, overall ranking (MK2 [2]; overall statement on compounds tested at 20 μM (Malme-3M and RMVEC cells))
1 | Cl.Cl.OCCN1CCN(CCC=C2c3ccccc3Sc3ccc(C(F)(F)F)cc32)CC1 (mixture of isomers) [Flupenthixol dihydrochloride] | 1.1 | 10.4 |  |  | 
2 | c1cc(OCCN2CCCCC2)cc(-c2n[nH]c3ccc(-c4nc[nH]n4)cc23)c1 [CC-401 Hydrochloride] | 0.9 | 6.3 |  |  | 
3 | Cc1ccccc1-c1cc(N2CCN(C)CC2)ncc1N(C)C(=O)C(C)(C)c1cc(C(F)(F)F)cc(C(F)(F)F)c1 [Compound 9, Netupitant] | 0.7 | 2.7 |  |  | 
4 | COc1ccc(-c2ccc3ncc4c(c3c2)n(-c2ccc(N3CCNCC3)c(C(F)(F)F)c2)c(=O)n4C)cn1 [Compound 14, Bgt-226] | 1.1 | 19.4 | 1.2 | 26.9 | 
5 | Cc1nc2n(c(=O)c1CCN1CCC(c3noc4cc(F)ccc34)CC1)CCCC2O (centres unmarked) [Compound 20, Paliperidone] | 1.1 | 4.3 |  |  | 
6 | O=C1[C@H]2CCCC[C@H]2C(=O)N1CCCCN1CCN(c2nsc3ccccc23)CC1 [Compound 23, Perospirone] |  |  | 32.0 | 720.7 | most robust response
7 | O=C1Cc2cc(CCN3CCN(c4nsc5ccccc45)CC3)c(Cl)cc2N1 [Compound 24, Ziprasidone] |  |  | 1.6 | 35.4 | 
8 | COc1cc2ncnc(Oc3cccc(NC(=O)Nc4cc(C(C)(C)C(F)(F)F)on4)c3)c2cc1OC [Compound 27, Cep-32496] | 0.9 | 6.2 |  |  | 
9 | CCn1cc(-c2ccnc3[nH]c(-c4cccc(CN(C)C)c4)cc23)c(-c2ccc(NC(=O)N(C)C)cc2)n1 [Compound 28, Gsk-1070916] | 0.2 | 0.9 |  |  | 
10 | C[C@@H](Oc1cc(-n2cnc3ccc(CN4CCN(C)CC4)cc32)sc1C(N)=O)c1ccccc1C(F)(F)F [Compound 29, Gsk-461364] | 1.8 | 39.0 | 1.0 | 22.1 | 
11 | Cn1cc(-c2ccc(F)c(C(F)(F)F)c2)nc1C1CCN(c2ncnc3[nH]ncc23)CC1 [Compound 30, Ly-2584702] | 0.3 | 0.0 |  |  | 
12 | Cc1csc(-c2nnc(Nc3ccc(Oc4ncccc4-c4ccnc(N)n4)cc3)c3ccccc23)c1 [Compound 33, Amg- 900] | 1.6 | 20.4 | 0.9 | 21.2 | 
13 | C=CCn1c(=O)c2cnc(Nc3ccc(N4CCN(C)CC4)cc3)nc2n1-c1cccc(C(C)(C)O)n1 [Compound 36, Azd-1775] | 0.9 | 21.4 | 0.7 | 15.7 | 
14 | FC(F)(F)c1ccc(/C=C/c2nc(COc3ccc(CCCCn4ccnn4)cc3)co2)cc1 [Compound 37, Mubritinib] | 1.6 | 34.0 | 1.6 | 36.8 | 
15 | Nc1ccccc1NC(=O)c1ccc(CNc2nccc(-c3cccnc3)n2)cc1 [Compound 38, Mocetinostat] | 1.0 | 17.8 | 0.9 | 21.2 | 
16 | Cc1nc(Nc2[nH]nc3c2CN(C(=O)N[C@H](CN(C)C)c2ccccc2)C3(C)C)c2sccc2n1 [Compound 39, Pf-03758309] | 1.0 | 4.8 |  |  | 
17 | Cc1nc2ccc(CN(C)c3ccc(C(=O)N[C@@H](CCC(=O)O)C(=O)O)s3)cc2c(=O)[nH]1 [Compound 41, Raltitrexed] | 1.1 | 25.4 | 1.7 | 38.7 | 
18 | CC(C)c1cc(CNc2nc(Nc3cc(C4CC4)[nH]n3)cc(N3CCN(C)CC3)n2)on1 [Compound 43, Xl-228] | 0.4 | 5.7 |  |  | 
19 | CC(=O)N1CCN(CCOc2ccc(C3CCN(C4=Nn5c(nnc5C(F)(F)F)CC4)CC3)cc2)CC1 [Compound 44, Azd3514] | 0.9 | 5.9 |  |  | 
20 | CCS(=O)(=O)c1cccc(-c2cc(C(=O)NC3CCN(C)CC3)c(C)c3[nH]c4ncc(C)cc4c23)c1 [Compound 46, Tak-901] | 0.2 | -0.2 |  |  | 
21 | Cn1c(Nc2ccc(C(F)(F)F)cc2)nc2cc(Oc3ccnc(-c4ncc(C(F)(F)F)[nH]4)c3)ccc21 [Compound 47, Chir-265] | 0.9 | 8.5 |  |  | 

Row | Molecule | Ratio Compound/control (MK2 [1]) | Average Response HSP27 (MK2 [1]) [pg/mL] | Ratio to Control (MK2 [2]) | Pho-HSP27 (MK2 [2]) [pg/mL] | response in phospho-HSP27 ELISA, overall ranking (MK2 [2]; overall statement on compounds tested at 20 μM (Malme-3M and RMVEC cells))
22 | Cc1c(NC(=O)OC[C@@H]2COCCN2)cn2ncnc(Nc3ccc4c(cnn4Cc4cccc(F)c4)c3)c12 [Compound 49, Ac-480] | 1.3 | 12.1 |  |  | 
23 | Cc1cn(-c2cc(NC(=O)c3ccc(C)c(Nc4nccc(-c5cccnc5)n4)c3)cc(C(F)(F)F)c2)cn1 [Compound 51, Nilotinib] | 1.1 | 18.2 | 0.6 | 12.7 | 
24 | Cc1cn(-c2cc(NC(=O)c3ccc(C)c(Nc4nccc(-c5cnccn5)n4)c3)cc(C(F)(F)F)c2)cn1 [Compound 52, Radotinib] | 1.0 | 21.7 | 0.9 | 20.8 | 
25 | CCN1CCN(Cc2ccc(NC(=O)Nc3ccc(Oc4cc(NC)ncn4)cc3)cc2C(F)(F)F)CC1 [Compound 55, Ast-487] | 1.3 | 9.0 |  |  | 
26 | Cc1cc(Nc2cc(N3CCN(C)CC3)nc(/C=C/c3ccccc3)n2)n[nH]1 [Compound 56, Enmd-2076] | 0.3 | 4.6 |  |  | 
27 | CNCc1ccc(C)c(NC(=O)c2ccc(Nc3nc(-c4ccccc4)c4ccccc4n3)cc2)c1 [Compound 57, Bms - 833923] | 1.3 | 8.8 |  |  | 
28 | Cc1oncc1C(=O)Nc1ccc(C(F)(F)F)cc1 [Compound 72, Leflunomide] | 1.3 | 5.2 |  |  | 
29 | CCc1cc(/C(C)=N/OCc2ccc(C3CCCCC3)c(C(F)(F)F)c2)ccc1CN1CC(C(=O)O)C1 [Compound 76, Siponimod] | 1.0 | 6.6 |  |  | 
30 | COCCOc1ccc(N2CCN(CCn3ncc4c3nc(N)n3nc(-c5ccco5)nc43)CC2)cc1 [Compound 106, Preladenant] | 0.9 | 4.2 |  |  | 
31 | CC(C)Nc1cccnc1N1CCN(C(=O)c2cc3cc(NS(C)(=O)=O)ccc3[nH]2)CC1 [Compound 108, Delavirdine] |  |  | 0.8 | 17.3 | 
32 | NC(=O)[C@@H](CCC(F)(F)F)N(Cc1ccc(-c2ncon2)cc1F)S(=O)(=O)c1ccc(Cl)cc1 [Compound 115, Avagacestat] | 0.8 | 5.7 |  |  | 
33 | OCC(O)CN1CCN(c2ccccc2)CC1 (centres unmarked) [Dropropizine] | 0.1 | 1.2 |  |  | 
34 | O=C(Nc1cccc(C2=NCCN2)c1)Nc1cccc(C2=NCCN2)c1 [Imidocarb dipropionate] | 1.3 | 11.7 |  |  | 
35 | N=C(N)c1ccc2cc(OC(=O)c3ccc(N=C(N)N)cc3)ccc2c1 [Nafamostat Mesylate] | 1.3 | 11.7 |  |  | 
36 | O=C1[C@H]2CCCC[C@H]2C(=O)N1CCCCN1CCN(c2nsc3ccccc23)CC1 [Perospirone hydrochloride] | 2.2 | 43.2 |  |  | 
37 | Cc1cc(N2CCN([C@@H]3CN[C@H](C(=O)N4CCSC4)C3)CC2)n(-c2ccccc2)n1 [Teneligliptin hydrobromide] | 0.8 | 4.0 |  |  | 
38 | O=C1Cc2cc(CCN3CCN(c4nsc5ccccc45)CC3)c(Cl)cc2N1 [Ziprasidone HCl] | 1.5 | 32.3 |  |  | 
39 | Cl.Cl.Cl.O[C@@H](COc1cccc2ncccc12)CN1CCN([C@@H]2c3ccccc3[C@@H]3[C@H](c4ccccc42)C3(F)F)CC1 [Zosuquidar (LY335979) 3HCl] | 0.7 | 11.8 |  |  | 
40 | Delavirdine (mesylate) | 1.1 | 18.4 |  |  | 
41 | MK2-AP (batch#2): presumably the positively charged MK2-activating peptide YARAAARQARAHPRNPARRTPGTRRGAPAA (SEQ ID NO: 7) (MK2 peptide fragment) | 2.7 | 11.7 |  |  | 
